{
  "source": "paper PMC5931191",
  "about": "“Reversible stapling of unprotected peptides via chemoselective methionine bis-alkylation/dealkylation” (Chemical Science, 2018)",
  "settings_in_all_cases": "the molecule shown is the open-chain precursor, MeCN/H2O 30:70 (SI: 1:3) + 1% HCOOH, small amount of DMF, 10.0 mM, 25.0 °C",
  "key": {"[1]": {"assay": "Met bis-alkylation (bis-sulfonium staple) with linker c, 1,4-bis(bromomethyl)benzene (1.2 equiv), 1% HCOOH (pH ~3), 24 h"}, "[2]": {"assay": "Met bis-alkylation (bis-sulfonium staple) of one unprotected peptide with different dihalide linkers (1.2 equiv), 1% HCOOH (pH ~3), 24 h"}, "[3]": {"assay": "Met bis-alkylation (bis-sulfonium staple) with linker a, 1,3-bis(bromomethyl)benzene (1.2 equiv), 1% HCOOH (pH ~3), 24 h"}},
  "data": [
    {"molecule": "CSCC[C@H](NC(=O)[C@H](CC(=O)O)NC(=O)CNC(=O)[C@H](CCCNC(=N)N)NC(=O)[C@H](CC(=O)O)NC(=O)CNC(=O)[C@H](CCCNC(=N)N)NC(=O)[C@H](CC[S+](C)Cc1ccc(CBr)cc1)NC(=O)[C@H](Cc1c[nH]c2ccccc12)NC(C)=O)C(N)=O", "note": "(stereo partly drawn) [Ac-Trp-Met-Arg-Gly-Asp-Arg-Gly-Asp-Met-NH2]", "values": [
      {"measurement": "ring closure, conversion by HPLC", "setting": "[1]; 34-membered ring", "value": 54, "unit": "%"}
    ]},
    {"molecule": "CSCC[C@H](NC(=O)[C@H](CC(C)C)NC(=O)[C@H](CS)NC(=O)[C@H](CC[S+](C)Cc1ccc(CBr)cc1)NC(=O)[C@H](Cc1c[nH]c2ccccc12)NC(C)=O)C(=O)N[C@@H](C)C(N)=O", "note": "(stereo partly drawn) [Ac-Trp-Met-Cys-Leu-Met-Ala-NH2]", "values": [
      {"measurement": "ring closure, conversion by HPLC", "setting": "[1]; 22-membered ring", "value": "> 95", "unit": "%"}
    ]},
    {"molecule": "CSCC[C@H](NC(=O)[C@H](CC(=O)O)NC(=O)[C@@H](NC(=O)[C@H](Cc1c[nH]cn1)NC(=O)[C@H](CC[S+](C)Cc1ccc(CBr)cc1)NC(=O)[C@H](Cc1c[nH]c2ccccc12)NC(C)=O)C(C)C)C(=O)N[C@@H](C)C(N)=O", "note": "(stereo partly drawn) [Ac-Trp-Met-His-Val-Asp-Met-Ala-NH2]", "values": [
      {"measurement": "ring closure, conversion by HPLC", "setting": "[1]; 25-membered ring", "value": 85, "unit": "%"}
    ]},
    {"molecule": "CSCC[C@H](NC(=O)[C@H](CC(=O)O)NC(=O)CNC(=O)[C@H](CCCNC(=N)N)NC(=O)[C@H](CC[S+](C)CCCCI)NC(=O)[C@H](Cc1c[nH]c2ccccc12)NC(C)=O)C(N)=O", "note": "(stereo partly drawn) [Ac-Trp-Met-Arg-Gly-Asp-Met-NH2 + 1,4-diiodobutane]", "values": [
      {"measurement": "ring closure, conversion by HPLC", "setting": "[2]; 23-membered ring", "value": 0, "unit": "%"}
    ]},
    {"molecule": "CSCC[C@H](NC(=O)[C@H](CC(=O)O)NC(=O)CNC(=O)[C@H](CCCNC(=N)N)NC(=O)[C@H](CC[S+](C)CCCCBr)NC(=O)[C@H](Cc1c[nH]c2ccccc12)NC(C)=O)C(N)=O", "note": "(stereo partly drawn) [Ac-Trp-Met-Arg-Gly-Asp-Met-NH2 + 1,4-dibromobutane]", "values": [
      {"measurement": "ring closure, conversion by HPLC", "setting": "[2]; 23-membered ring", "value": 0, "unit": "%"}
    ]},
    {"molecule": "CSCC[C@H](NC(=O)[C@H](CC(=O)O)NC(=O)CNC(=O)[C@H](CCCNC(=N)N)NC(=O)[C@H](CC[S+](C)C/C=C/CBr)NC(=O)[C@H](Cc1c[nH]c2ccccc12)NC(C)=O)C(N)=O", "note": "(stereo partly drawn) [Ac-Trp-Met-Arg-Gly-Asp-Met-NH2 + (E)-1,4-dibromobut-2-ene]", "values": [
      {"measurement": "ring closure, conversion by HPLC", "setting": "[2]; 23-membered ring", "value": 93, "unit": "%"}
    ]},
    {"molecule": "CC[C@H](C)[C@H](NC(=O)[C@H](CCCCN)NC(=O)[C@H](CC[S+](C)Cc1ccc(CBr)cc1)NC(=O)[C@H](Cc1c[nH]c2ccccc12)NC(C)=O)C(=O)N[C@@H](CCC(=O)O)C(=O)N[C@@H](CCSC)C(=O)N[C@@H](C)C(N)=O", "note": "(stereo partly drawn) [Ac-Trp-Met-Lys-Ile-Glu-Met-Ala-NH2]", "values": [
      {"measurement": "ring closure, conversion by HPLC", "setting": "[1]; 25-membered ring", "value": 83, "unit": "%"}
    ]},
    {"molecule": "CSCC[C@H](NC(=O)[C@H](CC(=O)O)NC(=O)CNC(=O)[C@H](CCCNC(=N)N)NC(=O)[C@H](CC[S+](C)Cc1cccc(CBr)c1)NC(=O)[C@H](Cc1c[nH]c2ccccc12)NC(C)=O)C(N)=O", "note": "(stereo partly drawn) [Ac-Trp-Met-Arg-Gly-Asp-Met-NH2 + 1,3-bis(bromomethyl)benzene]", "values": [
      {"measurement": "ring closure, conversion by HPLC", "setting": "[2]; 24-membered ring", "value": 88, "unit": "%"}
    ]},
    {"molecule": "CSCC[C@H](NC(=O)[C@H](CC(=O)O)NC(=O)CNC(=O)[C@H](CCCNC(=N)N)NC(=O)[C@H](CC[S+](C)Cc1ccc(-c2ccc(CBr)cc2)cc1)NC(=O)[C@H](Cc1c[nH]c2ccccc12)NC(C)=O)C(N)=O", "note": "(stereo partly shown)", "values": [
      {"measurement": "ring closure, conversion by HPLC", "setting": "[2]; 29-membered ring", "value": 60, "unit": "%"}
    ]},
    {"molecule": "CSCC[C@H](NC(=O)[C@H](CC(C)C)NC(=O)[C@H](CS)NC(=O)[C@H](CC[S+](C)Cc1cccc(CBr)c1)NC(=O)[C@H](Cc1c[nH]c2ccccc12)NC(C)=O)C(=O)N[C@@H](C)C(N)=O", "note": "(stereo partly drawn) [Ac-Trp-Met-Cys-Leu-Met-Ala-NH2]", "values": [
      {"measurement": "ring closure, conversion by HPLC", "setting": "[3]; 21-membered ring", "value": "> 95", "unit": "%"}
    ]},
    {"molecule": "CSCC[C@H](NC(=O)[C@H](CCC(=O)O)NC(=O)[C@H](CCCCN)NC(=O)[C@H](CC[S+](C)Cc1cccc(CBr)c1)NC(=O)[C@H](Cc1c[nH]c2ccccc12)NC(C)=O)C(=O)N[C@@H](C)C(N)=O", "note": "(stereo partly drawn) [Ac-Trp-Met-Lys-Glu-Met-Ala-NH2]", "values": [
      {"measurement": "ring closure, conversion by HPLC", "setting": "[3]; 21-membered ring", "value": 85, "unit": "%"}
    ]},
    {"molecule": "CSCC[C@H](NC(=O)[C@H](CC(=O)O)NC(=O)CNC(=O)[C@H](CCCNC(=N)N)NC(=O)[C@H](CC(=O)O)NC(=O)CNC(=O)[C@H](CCCNC(=N)N)NC(=O)[C@H](CC[S+](C)Cc1cccc(CBr)c1)NC(=O)[C@H](Cc1c[nH]c2ccccc12)NC(C)=O)C(N)=O", "note": "(stereo partly drawn) [Ac-Trp-Met-Arg-Gly-Asp-Arg-Gly-Asp-Met-NH2]", "values": [
      {"measurement": "ring closure, conversion by HPLC", "setting": "[3]; 33-membered ring", "value": 85, "unit": "%"}
    ]},
    {"molecule": "CC[C@H](C)[C@H](NC(=O)[C@H](CCCCN)NC(=O)[C@H](CC[S+](C)Cc1cccc(CBr)c1)NC(=O)[C@H](Cc1c[nH]c2ccccc12)NC(C)=O)C(=O)N[C@@H](CCC(=O)O)C(=O)N[C@@H](CCSC)C(=O)N[C@@H](C)C(N)=O", "note": "(stereo partly drawn) [Ac-Trp-Met-Lys-Ile-Glu-Met-Ala-NH2]", "values": [
      {"measurement": "ring closure, conversion by HPLC", "setting": "[3]; 24-membered ring", "value": 77, "unit": "%"}
    ]},
    {"molecule": "CSCC[C@H](NC(=O)[C@H](CC(=O)O)NC(=O)[C@@H](NC(=O)[C@H](Cc1c[nH]cn1)NC(=O)[C@H](CC[S+](C)Cc1cccc(CBr)c1)NC(=O)[C@H](Cc1c[nH]c2ccccc12)NC(C)=O)C(C)C)C(=O)N[C@@H](C)C(N)=O", "note": "(stereo partly drawn) [Ac-Trp-Met-His-Val-Asp-Met-Ala-NH2]", "values": [
      {"measurement": "ring closure, conversion by HPLC", "setting": "[3]; 24-membered ring", "value": 73, "unit": "%"}
    ]},
    {"molecule": "CSCC[C@H](NC(=O)CNC(=O)[C@H](Cc1ccc(O)cc1)NC(=O)[C@@H]1CCCN1C(=O)[C@H](CC[S+](C)Cc1ccc(CBr)cc1)NC(=O)[C@H](Cc1c[nH]c2ccccc12)NC(C)=O)C(=O)N[C@@H](C)C(N)=O", "note": "(stereo partly drawn) [Ac-Trp-Met-Pro-Tyr-Gly-Met-Ala-NH2]", "values": [
      {"measurement": "ring closure, conversion by HPLC", "setting": "[1]; 25-membered ring", "value": 81, "unit": "%"}
    ]},
    {"molecule": "CSCC[C@H](NC(=O)[C@H](Cc1c[nH]cn1)NC(=O)[C@@H]1CCCN1C(=O)[C@H](CC[S+](C)Cc1cccc(CBr)c1)NC(=O)[C@H](Cc1c[nH]c2ccccc12)NC(C)=O)C(=O)N[C@@H](C)C(N)=O", "note": "(stereo partly drawn) [Ac-Trp-Met-Pro-His-Met-Ala-NH2]", "values": [
      {"measurement": "ring closure, conversion by HPLC", "setting": "[3]; 21-membered ring", "value": 84, "unit": "%"}
    ]},
    {"molecule": "CSCC[C@H](NC(=O)[C@H](CC(=O)O)NC(=O)CNC(=O)[C@H](CCCNC(=N)N)NC(=O)[C@H](CC[S+](C)Cc1ccc(CBr)cc1)NC(=O)[C@H](Cc1c[nH]c2ccccc12)NC(C)=O)C(N)=O", "note": "(stereo partly drawn) [Ac-Trp-Met-Arg-Gly-Asp-Met-NH2 + 1,4-bis(bromomethyl)benzene]", "values": [
      {"measurement": "ring closure, conversion by HPLC", "setting": "[2]; 25-membered ring", "value": 49, "unit": "%"}
    ]},
    {"molecule": "CSCC[C@H](NC(=O)[C@H](CCC(=O)O)NC(=O)[C@H](CCCCN)NC(=O)[C@H](CC[S+](C)Cc1ccc(CBr)cc1)NC(=O)[C@H](Cc1c[nH]c2ccccc12)NC(C)=O)C(=O)N[C@@H](C)C(N)=O", "note": "(stereo partly drawn) [Ac-Trp-Met-Lys-Glu-Met-Ala-NH2]", "values": [
      {"measurement": "ring closure, conversion by HPLC", "setting": "[1]; 22-membered ring", "value": 73, "unit": "%"}
    ]},
    {"molecule": "CSCC[C@H](NC(=O)[C@H](CC(=O)O)NC(=O)CNC(=O)[C@H](CCCNC(=N)N)NC(=O)[C@H](CC[S+](C)Cc1ccccc1CBr)NC(=O)[C@H](Cc1c[nH]c2ccccc12)NC(C)=O)C(N)=O", "note": "(stereo partly drawn) [Ac-Trp-Met-Arg-Gly-Asp-Met-NH2 + 1,2-bis(bromomethyl)benzene]", "values": [
      {"measurement": "ring closure, conversion by HPLC", "setting": "[2]; 23-membered ring", "value": 58, "unit": "%"}
    ]},
    {"molecule": "CSCC[C@H](NC(=O)[C@H](CC(=O)O)NC(=O)CNC(=O)[C@H](CCCNC(=N)N)NC(=O)[C@H](CC[S+](C)Cc1nc2ccccc2nc1CBr)NC(=O)[C@H](Cc1c[nH]c2ccccc12)NC(C)=O)C(N)=O", "note": "(stereo partly shown)", "values": [
      {"measurement": "ring closure, conversion by HPLC", "setting": "[2]; 23-membered ring", "value": 53, "unit": "%"}
    ]},
    {"molecule": "CSCC[C@H](NC(=O)[C@H](CC(=O)O)NC(=O)CNC(=O)[C@H](CCCNC(=N)N)NC(=O)[C@H](CC[S+](C)CC(=O)C(=O)CBr)NC(=O)[C@H](Cc1c[nH]c2ccccc12)NC(C)=O)C(N)=O", "note": "(stereo partly drawn) [Ac-Trp-Met-Arg-Gly-Asp-Met-NH2 + 1,4-dibromobutane-2,3-dione]", "values": [
      {"measurement": "ring closure, conversion by HPLC", "setting": "[2]; 23-membered ring", "value": 64, "unit": "%"}
    ]},
    {"molecule": "CSCC[C@H](NC(=O)CNC(=O)[C@H](Cc1ccc(O)cc1)NC(=O)[C@@H]1CCCN1C(=O)[C@H](CC[S+](C)Cc1cccc(CBr)c1)NC(=O)[C@H](Cc1c[nH]c2ccccc12)NC(C)=O)C(=O)N[C@@H](C)C(N)=O", "note": "(stereo partly drawn) [Ac-Trp-Met-Pro-Tyr-Gly-Met-Ala-NH2]", "values": [
      {"measurement": "ring closure, conversion by HPLC", "setting": "[3]; 24-membered ring", "value": 70, "unit": "%"}
    ]}
  ]
}
